According to ChEMBL document CHEMBL2073968, “Multidrug resistance protein 4 (MRP4/ABCC4) mediates efflux of bimane-glutathione” (Int J Biochem Cell Biol, 2004):
pIC50: −log10 of the molar value.

Experiments:
[1] = molecular target: T1, MRP4 (ATP-binding cassette sub-family C member 4) (Homo sapiens, UniProt O15439); experiment: TP_TRANSPORTER: inhibition of bimane-GS efflux in the presence of 6-thioguanine at a concentration of 100uM in MRP4-expressing HepG2 cells; format: functional, cell-based; design: scale not given: the % may be the effect or the level left; details: probe bimane-GS, read-out: Activity
T1 sequence (O15439 whole entry): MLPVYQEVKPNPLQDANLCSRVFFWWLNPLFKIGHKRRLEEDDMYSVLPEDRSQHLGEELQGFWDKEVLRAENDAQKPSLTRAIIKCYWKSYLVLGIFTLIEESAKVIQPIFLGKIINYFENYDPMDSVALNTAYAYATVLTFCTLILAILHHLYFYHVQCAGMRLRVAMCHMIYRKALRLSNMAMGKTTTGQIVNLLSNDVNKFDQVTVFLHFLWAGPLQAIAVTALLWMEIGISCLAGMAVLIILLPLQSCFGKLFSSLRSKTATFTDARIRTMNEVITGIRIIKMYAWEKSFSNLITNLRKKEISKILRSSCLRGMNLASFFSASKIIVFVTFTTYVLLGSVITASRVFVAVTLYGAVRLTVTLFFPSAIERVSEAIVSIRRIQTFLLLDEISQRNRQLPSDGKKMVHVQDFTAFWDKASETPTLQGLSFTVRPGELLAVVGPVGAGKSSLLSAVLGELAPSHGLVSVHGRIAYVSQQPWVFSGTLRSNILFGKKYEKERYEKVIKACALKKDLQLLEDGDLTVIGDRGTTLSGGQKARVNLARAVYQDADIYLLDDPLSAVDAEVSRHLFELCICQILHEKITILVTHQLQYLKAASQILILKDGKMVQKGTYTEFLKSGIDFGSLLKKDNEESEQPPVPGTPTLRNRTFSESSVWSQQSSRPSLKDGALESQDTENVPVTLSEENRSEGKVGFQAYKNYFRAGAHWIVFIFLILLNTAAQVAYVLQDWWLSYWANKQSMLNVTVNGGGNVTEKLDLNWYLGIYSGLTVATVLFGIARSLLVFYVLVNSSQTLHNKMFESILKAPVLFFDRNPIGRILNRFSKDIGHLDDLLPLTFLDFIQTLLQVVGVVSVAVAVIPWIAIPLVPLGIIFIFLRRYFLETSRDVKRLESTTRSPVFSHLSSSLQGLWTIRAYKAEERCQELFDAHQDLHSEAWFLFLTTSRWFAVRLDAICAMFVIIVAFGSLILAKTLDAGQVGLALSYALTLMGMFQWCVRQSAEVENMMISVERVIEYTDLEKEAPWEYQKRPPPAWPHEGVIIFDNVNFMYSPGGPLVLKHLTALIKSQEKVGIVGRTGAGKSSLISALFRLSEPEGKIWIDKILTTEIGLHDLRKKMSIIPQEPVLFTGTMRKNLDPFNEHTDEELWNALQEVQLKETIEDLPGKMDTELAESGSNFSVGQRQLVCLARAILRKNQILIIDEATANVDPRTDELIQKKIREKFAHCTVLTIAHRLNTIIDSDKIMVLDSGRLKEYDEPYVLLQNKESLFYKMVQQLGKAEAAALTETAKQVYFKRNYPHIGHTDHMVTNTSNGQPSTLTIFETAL

[2] = molecular target: T2, ATP-binding cassette sub-family C member 4 (Homo sapiens, UniProt O15439); experiment: TP_TRANSPORTER: inhibition of bimane-GS efflux in the presence of Indomethacin at a concentration of 50uM in MRP4-expressing HepG2 cells; format: functional, cell-based; design: scale not given: the % may be the effect or the level left; details: hepg2, 50 µM
T2 sequence (O15439 whole entry): T1 sequence (O15439 whole entry)

[3] = molecular target: T2, ATP-binding cassette sub-family C member 4; experiment: TP_TRANSPORTER: inhibition of bimane-GS efflux in the presence of 1-chloro-2,4-dinitrobenzen(2,4-dinitrophenyl-glutathione) at a concentration of 100uM in MRP4-expressing HepG2 cells; format: functional, cell-based; design: scale not given: the % may be the effect or the level left; details: hepg2, 100 µM
[4] = molecular target: T2, ATP-binding cassette sub-family C member 4; experiment: TP_TRANSPORTER: inhibition of bimane-GS efflux in the presence of Benzbromarone at a concentration of 5uM in MRP4-expressing HepG2 cells; format: functional, cell-based; design: scale not given: the % may be the effect or the level left; details: hepg2, 5 µM
[5] = molecular target: T2, ATP-binding cassette sub-family C member 4; experiment: TP_TRANSPORTER: efflux in MRP4-expressing HepG2 cells; format: functional, cell-based
[6] = molecular target: T1, MRP4 (ATP-binding cassette sub-family C member 4); experiment: TP_TRANSPORTER: inhibition of bimane-GS efflux in the presence of Methotrexate at a concentration of 100uM in MRP4-expressing HepG2 cells; format: functional, cell-based; design: scale not given: the % may be the effect or the level left; details: probe bimane-GS, read-out: Activity
[7] = molecular target: T2, ATP-binding cassette sub-family C member 4; experiment: TP_TRANSPORTER: inhibition of E217betaG uptake in membrane vesicles from MRP4-expressing Sf9 cells; format: functional, cell membranes, Membrane vesicle

Structure (SMILES): Nc1nc2nc[nH]c2c(=S)[nH]1 [THIOGUANINE]
- activity at 100 µM [1]: 53%

Structure (SMILES): COc1ccc2c(c1)c(CC(=O)O)c(C)n2C(=O)c1ccc(Cl)cc1 [INDOMETHACIN]
- Activity [2]: 74%

Structure (SMILES): NC(CCC(=O)NC(CSc1ccc([N+](=O)[O-])cc1[N+](=O)[O-])C(=O)NCC(=O)O)C(=O)O.O=[N+]([O-])c1ccc(Cl)c([N+](=O)[O-])c1 (configuration not stated)
- Activity [3]: 27%

Structure (SMILES): CCc1oc2ccccc2c1C(=O)c1cc(Br)c(O)c(Br)c1 [BENZBROMARONE]
- Activity [4]: 60%

Structure (SMILES): Cc1c(C)n2c(CSC[C@H](NC(=O)CC[C@H](N)C(=O)O)C(=O)CNC(=O)O)c(C)c(=O)n2c1=O [Bimane-glutathione]
- Activity [5]: substrate []

Structure (SMILES): CN(Cc1cnc2nc(N)nc(N)c2n1)c1ccc(C(=O)N[C@@H](CCC(=O)O)C(=O)O)cc1 [METHOTREXATE]
- activity at 100 µM [6]: 53%

Structure (SMILES): C[C@]12CC[C@H](OS(=O)(=O)O)CC1=CC[C@@H]1[C@@H]2CC[C@]2(C)C(=O)CC[C@@H]12 [PRASTERONE SULFURIC ACID]
- pIC50 [7]: 5.52
